Measured values taken from US11254958B1, “Metabolic engineering of E coli with thio-phosphate” (priority 2018, dated 2022).
Values joined by “and” are separate entries in the source; they are usually repeats but may differ in a detail not shown here. Equal entries are not always repeated. “Also recorded” adds a separate entry of the source.

Legend:
Type in all cases: cell-based
E. coli K-12 = assay: RNA seq analysis of total RNA (FPKM); design: hisA transcript elevation / FabB transcript elevation / TesA transcript elevation / FabD transcript elevation / FabH transcript elevation / ftsI transcript elevation / idtC transcript elevation / idtB transcript elevation: unit not given here
Protocol: (§1) E coli K12 bacteria were grown in high citrate minimal media with 5.4 g/L of thiophosphate or 2.4 g/L of Na2HPO4 for up to 12 hrs. The use of high citrate media was chosen to help lower the total amount of thiophosphate needed for growth when compared to regular M9 media (1). The media is prepared as follows: thiophosphate, 5.4 g/L; KCL 1.5 g/L; (NH4)2SO4, 2 g/L; sodium citrate 2H2O, 10 g/L. Adjust the pH to 7.5 and sterile filter the solution. Then add the following: MgSO4-7H2O, 0.2 g/L (sterilized separately as a conc. solution); glucose, 2 g/L sterilized separately by filtration). Glucose can also be sterilized by autoclaving separately. CaCl2 (11 mg/L) is also be added as needed.
For RNA seq analysis the RNA library was prepared using Illumina's TruSeq Stranded mRNA library prep (Illumina, 2010) without selection. The sequencing platform was HiSeq 2500 with a read format of PE 2×150. The coverage was at least 40 million per sample without rRNA depletion. A custom software build (Omegabioservice) of rRNA and tRNA sequences for reference mapping was used to more rapidly map rRNA sequences and avoid compression.
To get some idea of the impact of RNA stabilization via thiophosphate on specific mRNAs, RNA seq results were analyzed as FPKM (fragments per kilobase pair million) out of all reads including rRNA. This study was designed to give an absolute comparison rather than a relative comparison of transcript levels in total RNA. For control cells a total of 43 million reads of 150 bp in length were analyzed while 73.9 million reads were used in thiophosphate treated samples. The reads were mapped to a reference genome, E. coli K-12 substr. MG1655. One of the first things noticed was that many genes were not detected in both treated and control samples. Some of these absences were undoubtedly due to the low coverage resulting from the presence of numerous ribosomal RNA sequences in the preparations. However, even some transcripts readily detected by microarray analysis were not present. Other transcripts were not assessed due to their high copy number and the need for protracted computational time to quantitate. The second thing that was most obvious when comparing the two samples was there were many changes both positive and negative in the levels of transcripts for different genes. The results pointed to significant transcriptional changes induced secondarily via the general stabilization of RNA in vivo with thiophosphate.

[1] = test system: E. coli K12 and JM109 strains; assay: Morphological changes by bright field microscopy
Protocol: as §1
To see if any morphological changes were occurring the bacteria were examined using bright field microscopy. […] To test whether this morphology was due to a nutritional deficiency K12 cells were grown in LB broth with 2.7 g of thiophosphate per liter.
In this media, filaments were detected by 8 hrs and by 2 hrs paired bacteria could be seen, as before with minimal media. In the 8 hr sample, however, the view was more mixed compared to that seen with minimal media, as both filamentous bacteria and some shorter and more normal appearing bacteria were observed.

[2] = test system: E. coli K12 and JM109 strains; assay: Morphological changes by bright field microscopy; details: K12, semi-synthetic media
[3] = semi-synthetic media containing thiophosphate with amino acids added

**Q.** How did the maximum decrease observed (E. coli K-12) turn out when `OP(O)(O)=S` [thio-phosphate] was run?
**A.** 1550 ×

**Q.** And the “median fold change, transcripts for 18 of the most abundant proteins” value (E. coli K-12)?
**A.** 1.55 × fold

**Q.** What about the “median fold decrease of decreased genes” value (E. coli K-12) of the same molecule?
**A.** 2.4

**Q.** What about the “median fold increase of increased genes” value (E. coli K-12) of the same molecule?
**A.** 2.75

**Q.** And the “transcript level of the 2 out of 18 abundant-protein genes showing reduction” value (E. coli K-12)?
**A.** 80 % of normal

**Q.** What about the “genes expressed at low levels showing negative fold changes in mRNA” value (E. coli K-12; 12 genes expressed at low levels) of the same molecule?
**A.** 58%

**Q.** What about the “transcripts showing negative fold changes, average stability mRNA class” value (E. coli K-12; 33 mRNAs, half-lives between 5-7 mins, platform not given) of the same molecule?
**A.** 30%

**Q.** What about the “transcripts showing negative fold changes, unstable mRNA class” value (E. coli K-12; 33 mRNAs, half-lives of 3 mins or less, platform not given) of the same molecule?
**A.** 36%

**Q.** And the “transcripts showing negative fold changes, stable mRNA class” value (E. coli K-12; 33 mRNAs, half-lives of 11 mins or more, platform not given)?
**A.** 36%

**Q.** And the “fold increase in total FPKM counts” value (E. coli K-12; 4,311 E. coli genes, vs controls)?
**A.** 1.37 × fold

**Q.** What about the FabB transcript elevation (E. coli K-12; RNA seq) of the same molecule?
**A.** 98

**Q.** And the FabD transcript elevation (E. coli K-12; RNA seq)?
**A.** 3.1

**Q.** And the FabH transcript elevation (E. coli K-12; RNA seq)?
**A.** 10.5

**Q.** What about the “Leu A transcript fold reduction” value (E. coli K-12; RNA seq) of the same molecule?
**A.** ~500 × fold

**Q.** What about the “Leu C transcript fold reduction” value (E. coli K-12; RNA seq) of the same molecule?
**A.** ~500 × fold

**Q.** What about the “Leu D transcript fold reduction” value (E. coli K-12; RNA seq) of the same molecule?
**A.** ~500 × fold

**Q.** What about the TesA transcript elevation (E. coli K-12; RNA seq) of the same molecule?
**A.** 3.5

**Q.** What about the accA transcript elevation (E. coli K-12; RNA seq) of the same molecule?
**A.** 19.8 ×

**Q.** What about the accC transcript elevation (E. coli K-12; RNA seq) of the same molecule?
**A.** 6.2 ×

**Q.** And the accD transcript elevation (E. coli K-12; RNA seq)?
**A.** 3.39 × and 3.4 ×

**Q.** What about the “adk transcript fold elevation” value (E. coli K-12; RNA seq) of the same molecule?
**A.** 3.4 × fold

**Q.** What about the “aidB transcript fold elevation” value (E. coli K-12; RNA seq) of the same molecule?
**A.** 4-6 × fold

**Q.** What about the bacA transcript elevation (E. coli K-12; RNA seq) of the same molecule?
**A.** 12 ×

**Q.** And the cysK transcript reduction (E. coli K-12; RNA seq)?
**A.** SOX

**Q.** What about the cysM transcript reduction (E. coli K-12; RNA seq) of the same molecule?
**A.** 292 ×

**Q.** And the ddlB transcript increase (E. coli K-12; RNA seq)?
**A.** 30 ×

**Q.** What about the “dusB transcript fold elevation” value (E. coli K-12; RNA seq) of the same molecule?
**A.** 1.18

**Q.** And the “dxs transcript fold increase” value (E. coli K-12; RNA seq)?
**A.** 101

**Q.** What about the hisA transcript elevation (E. coli K-12; RNA seq) of the same molecule?
**A.** 6.2

**Q.** And the hisB transcript elevation (E. coli K-12; RNA seq)?
**A.** 162 ×

**Q.** What about the hisC transcript elevation (E. coli K-12; RNA seq) of the same molecule?
**A.** 117 ×

**Q.** And the hisD transcript elevation (E. coli K-12; RNA seq)?
**A.** 10.9 ×

**Q.** What about the hisG transcript elevation (E. coli K-12; RNA seq) of the same molecule?
**A.** 4.6 ×

**Q.** And the hisH transcript elevation (E. coli K-12; RNA seq)?
**A.** 28 ×

**Q.** What about the hisI transcript elevation (E. coli K-12; RNA seq) of the same molecule?
**A.** 5 ×

**Q.** What about the “idi transcript fold increase” value (E. coli K-12; RNA seq) of the same molecule?
**A.** 3.57

**Q.** And the “infB transcript fold elevation” value (E. coli K-12; RNA seq)?
**A.** 3 × fold

**Q.** What about the ispA transcript elevation (E. coli K-12; RNA seq) of the same molecule?
**A.** 154 ×

**Q.** What about the “ispD transcript fold increase” value (E. coli K-12; RNA seq) of the same molecule?
**A.** 2

**Q.** And the “ispE transcript fold increase” value (E. coli K-12; RNA seq)?
**A.** 1.8

**Q.** What about the “ispF transcript fold increase” value (E. coli K-12; RNA seq) of the same molecule?
**A.** 2.6

**Q.** And the “ispH transcript fold increase” value (E. coli K-12; RNA seq)?
**A.** 2.2

**Q.** And the “katE transcript fold elevation” value (E. coli K-12; RNA seq)?
**A.** 4-6 × fold

**Q.** What about the murC transcript increase (E. coli K-12; RNA seq) of the same molecule?
**A.** 26 ×

**Q.** And the murD transcript increase (E. coli K-12; RNA seq)?
**A.** 144 ×

**Q.** What about the murE transcript increase (E. coli K-12; RNA seq) of the same molecule?
**A.** 152 ×

**Q.** What about the murF transcript increase (E. coli K-12; RNA seq) of the same molecule?
**A.** 250 ×

**Q.** And the murG transcript increase (E. coli K-12; RNA seq)?
**A.** 199 ×

**Q.** What about the “otsA transcript fold elevation” value (E. coli K-12; RNA seq) of the same molecule?
**A.** 4-6 × fold

**Q.** And the prsA transcript elevation (E. coli K-12; RNA seq)?
**A.** < 2 ×

**Q.** And the “pyrG transcript fold elevation” value (E. coli K-12; RNA seq)?
**A.** 2.1 × fold

**Q.** What about the “pyrH transcript fold elevation” value (E. coli K-12; RNA seq) of the same molecule?
**A.** 3.5 × fold

**Q.** And the “rpoS transcript fold elevation” value (E. coli K-12; RNA seq)?
**A.** 2.3 × fold

**Q.** And the “rsfs transcript fold decrease” value (E. coli K-12; RNA seq)?
**A.** 19 × fold

**Q.** And the trpA transcript elevation (E. coli K-12; RNA seq)?
**A.** 1049 ×

**Q.** What about the trpB transcript elevation (E. coli K-12; RNA seq) of the same molecule?
**A.** 1955 ×

**Q.** And the trpC transcript elevation (E. coli K-12; RNA seq)?
**A.** 606 ×

**Q.** What about the trpD transcript elevation (E. coli K-12; RNA seq) of the same molecule?
**A.** 443 ×

**Q.** And the trpE transcript elevation (E. coli K-12; RNA seq)?
**A.** 541 ×

**Q.** What about the tryD transcript elevation (E. coli K-12; RNA seq) of the same molecule?
**A.** 443 ×

**Q.** And the “ybaY transcript fold elevation” value (E. coli K-12; RNA seq)?
**A.** 4-6 × fold

**Q.** And the “ycih transcript fold elevation” value (E. coli K-12; RNA seq)?
**A.** 8 × fold

**Q.** What about the yqgf transcript elevation (E. coli K-12; RNA seq) of the same molecule?
**A.** 4.64 ×

**Q.** What about the ftsI transcript elevation (E. coli K-12; RNA seq (value in parentheses)) of the same molecule?
**A.** 109

**Q.** What about the idtB transcript elevation (E. coli K-12; RNA seq (value in parentheses)) of the same molecule?
**A.** 164

**Q.** What about the idtC transcript elevation (E. coli K-12; RNA seq (value in parentheses)) of the same molecule?
**A.** 3.6

**Q.** What about the “tRNA synthetases average increase” value (E. coli K-12; RNA seq, 13 tRNA synthetases detected) of the same molecule?
**A.** 11.7 × fold

**Q.** And the “CspA transcript fold increase” value (E. coli K-12; RNA seq, vs control)?
**A.** 1.6 × fold

**Q.** What about the “nusA transcript fold increase” value (E. coli K-12; RNA seq, vs control) of the same molecule?
**A.** 3 × fold

**Q.** And the “average fold decrease of decreased genes” value (E. coli K-12; SD 93)?
**A.** 20.4

**Q.** And the “average fold increase of increased genes” value (E. coli K-12; SD 291)?
**A.** 44 × fold

**Q.** What about the “fold increase in mRNA or non-ribosomal RNA” value (E. coli K-12; after correcting for expected control reading of 82% for rRNA) of the same molecule?
**A.** 2.75 × fold

**Q.** What about the “fraction of reads that were rRNA” value (E. coli K-12; custom build of E. coli rRNA sequences) of the same molecule?
**A.** 68.7%

**Q.** What about the “median positive fold change, average mRNA class” value (E. coli K-12; platform not given) of the same molecule?
**A.** 2.6 ×

**Q.** And the “median positive fold change, stable mRNA class” value (E. coli K-12; platform not given)?
**A.** 2.7 ×

**Q.** And the “median positive fold change, unstable mRNA class” value (E. coli K-12; platform not given)?
**A.** 1.6 ×

**Q.** And the “ribD, ribB, ribE and ribF gene transcripts” value (E. coli K-12; platform not given)?
**A.** did not appear to be significantly elevated

**Q.** And the Nlpl fold decrease (E. coli K-12; printed as protein, platform not given)?
**A.** 32 × fold

**Q.** And the “cdsA mRNA increase” value (E. coli K-12; value in parentheses (RNA seq))?
**A.** 21 ×

**Q.** What about the morphology ([1]; K12, LB broth with 2.7 g of thiophosphate per liter, 12 hrs) of the same molecule?
**A.** Filamentous growth was not observed; also recorded: paired phenotype

**Q.** And the morphology ([1]; K12, LB broth with 2.7 g of thiophosphate per liter, 12 hrs, listed as TP)?
**A.** paired phenotype

**Q.** What about the morphology ([1]; K12 and JM109, minimal thiophosphate media, 12 hrs) of the same molecule?
**A.** distinct filamentous morphology

**Q.** What about the morphology ([1]; K12 and JM109, minimal thiophosphate media, 12 hrs, listed as TP) of the same molecule?
**A.** filamentous phenotype

**Q.** What about the morphology ([1]; K12 and JM109, thiophosphate media, 2 hrs) of the same molecule?
**A.** appeared as pairs

**Q.** And the growth [1, 3]?
**A.** good growth

**Q.** What about the morphology [1, 3] of the same molecule?
**A.** mixed with both long filamentous and shorter bacterial cells

**Q.** What about the “time by which filaments were detected” value [2] of the same molecule?
**A.** ≤ 8 h

**Q.** What about the “time by which paired bacteria could be seen” value [2] of the same molecule?
**A.** ≤ 2 h
